Assay results taken from PubChem BioAssay (NCI).
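1) Cells in 96-well plates. 2) Compound, 48 h, 5 concentrations. 3) Linear interpolation between surrounding doses. 4) Unreached endpoint = highest concentration. Definition used: TGI = concentration required for complete inhibition of growth.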

How the values were obtained:
Test in all cases: inhibition of tumour cell growth, NCI panel, 48 h
[1] = test system: MALME-3M melanoma
[2] = test system: HOP-92 NSCLC
[3] = test system: OVCAR-4 ovarian
[4] = test system: SK-OV-3 ovarian
[5] = test system: SK-MEL-5 melanoma
[6] = test system: SK-MEL-2 melanoma
[7] = test system: HL-60(TB) leukemia
[8] = test system: K-562 leukemia
[9] = test system: HCC-2998 colon
[10] = test system: HCT-116 colon

COc1ccc(OC)c2c1C1CCC(=O)N1CN2C(C)=O (stereo not given) gave a TGI [1] of over 100 µM, a TGI [2] of over 100 µM and a TGI [3] of over 100 µM. It also gave a TGI [4] of over 100 µM, a TGI [5] of over 100 µM and a TGI [6] of over 100 µM. The TGI [7] was over 100 µM, the TGI [8] was over 100 µM and the TGI [9] was over 100 µM. It also gave a TGI [10] of over 100 µM.

With O=c1oc2ccc(Cl)cc2cc1-c1cn2cc(Cl)ccc2n1 the TGI [1] was 92.5 µM, the TGI [2] was over 100 µM and the TGI [3] was over 100 µM. It also gave a TGI [4] of over 100 µM, a TGI [5] of over 100 µM and a TGI [6] of over 100 µM. It also gave a TGI [7] of over 100 µM, a TGI [8] of over 100 µM and a TGI [9] of over 100 µM. For the same molecule, the TGI [10] was over 100 µM.

Cc1ccc(C(=O)/C(C#N)=C/Nc2c(C)n(C)n(-c3ccccc3)c2=O)cc1 showed a TGI [1] of over 100 µM, a TGI [2] of over 100 µM and a TGI [3] of over 100 µM. For the same molecule, the TGI [4] was over 100 µM, the TGI [5] was over 100 µM and the TGI [6] was over 100 µM. It also gave a TGI [7] of over 100 µM, a TGI [8] of over 100 µM and a TGI [9] of over 100 µM. For the same molecule, the TGI [10] was over 100 µM.

With CCOC(=O)C(/C=N\C(=S)Nc1ccc(OCC)cc1)=C(/O)c1ccccc1 the TGI [1] was over 100 µM, the TGI [2] was 67.8 µM and the TGI [3] was over 100 µM. For the same molecule, the TGI [4] was over 100 µM, the TGI [5] was over 100 µM and the TGI [6] was over 100 µM. The TGI [7] was over 100 µM, the TGI [8] was over 100 µM and the TGI [9] was over 100 µM. It also gave a TGI [10] of over 100 µM.

O=C1c2cccc3cccc(c23)C(=O)N1CCCNOCCONCCCN1C(=O)c2cccc3cccc(c23)C1=O showed a TGI [1] of over 100 µM, a TGI [2] of over 100 µM and a TGI [3] of over 100 µM. The TGI [4] was over 100 µM, the TGI [5] was over 100 µM and the TGI [6] was over 100 µM. For the same molecule, the TGI [7] was over 100 µM, the TGI [8] was over 100 µM and the TGI [9] was over 100 µM. The TGI [10] was over 100 µM.

NCCCCNCCCNC(=O)c1nc(-c2csc(CCN)n2)sc1Cl was tested, and the TGI [1] was over 100 µM, the TGI [2] was over 100 µM and the TGI [3] was over 100 µM. For the same molecule, the TGI [4] was over 100 µM, the TGI [5] was over 100 µM and the TGI [6] was over 100 µM. It also gave a TGI [7] of over 100 µM, a TGI [8] of over 100 µM and a TGI [9] of over 100 µM. For the same molecule, the TGI [10] was over 100 µM.

For CSC1=NS(=O)(=O)c2cc(C(=O)NN(C)C(=O)c3cc4c(cc3Cl)SC(SC)=NS4(=O)=O)c(Cl)cc2S1, the TGI [1] was over 10 µM, the TGI [2] was over 10 µM and the TGI [3] was over 10 µM. For the same molecule, the TGI [4] was over 10 µM, the TGI [5] was over 10 µM and the TGI [6] was over 10 µM. It also gave a TGI [7] of over 10 µM, a TGI [8] of over 10 µM and a TGI [9] of over 10 µM. For the same molecule, the TGI [10] was over 10 µM.

Molecule CC(=O)N1CCN(C23OC4(N5CCN(C(C)=O)CC5)C5C6CC(C7C6C4C72)C53)CC1 (stereo not given) has a TGI [1] of over 100 µM, a TGI [2] of over 100 µM and a TGI [3] of over 100 µM. For the same molecule, the TGI [4] was over 100 µM, the TGI [5] was over 100 µM and the TGI [6] was over 100 µM. The TGI [7] was over 100 µM, the TGI [8] was over 100 µM and the TGI [9] was over 100 µM. The TGI [10] was over 100 µM.

Molecule C=C(C)C1CC=C(C)C2(C1)OCC(C)(C)C(C)O2 (stereo not given) has a TGI [1] of 29.5 µM, a TGI [2] of 23.6 µM and a TGI [3] of 41.1 µM. For the same molecule, the TGI [4] was 53.7 µM, the TGI [5] was 29.2 µM and the TGI [6] was 34.2 µM. For the same molecule, the TGI [7] was 35.5 µM, the TGI [8] was 45.8 µM and the TGI [9] was 93.2 µM. It also gave a TGI [10] of 31.1 µM.

Cc1c2c(OCCCCN3CCN(c4ncccn4)CC3)nn(C)c(=O)c2c(C)n1-c1ccccc1 was tested, and the TGI [1] was 35.7 µM, the TGI [2] was 31.8 µM and the TGI [3] was 39.1 µM. The TGI [4] was 35.4 µM, the TGI [5] was 26.8 µM and the TGI [6] was 34.6 µM. The TGI [7] was 47.2 µM, the TGI [8] was over 100 µM and the TGI [9] was 35 µM. For the same molecule, the TGI [10] was 31.7 µM.

With COc1cc(C2S/C(=C/c3ccccc3)C(=O)N2c2ccc(Cl)c(Cl)c2)cc(OC)c1OC (stereo not given) the TGI [1] was over 100 µM, the TGI [2] was over 84.2 µM and the TGI [3] was over 100 µM. It also gave a TGI [4] of over 100 µM, a TGI [5] of over 100 µM and a TGI [6] of over 59.6 µM. It also gave a TGI [7] of over 100 µM, a TGI [8] of over 100 µM and a TGI [9] of over 100 µM. For the same molecule, the TGI [10] was over 78.9 µM.

In the case of CCc1ccc2c(c1)CC1(C2)Cc2cc3c(cc2C1)C(=O)CC3 (stereo not given), the TGI [1] is reported as 57.1 µM, the TGI [2] is reported as 52.7 µM and the TGI [3] is reported as 65.4 µM. For the same molecule, the TGI [4] was over 100 µM, the TGI [5] was 16.9 µM and the TGI [6] was 16.8 µM. It also gave a TGI [7] of 15.6 µM, a TGI [8] of 11.9 µM and a TGI [9] of 47.1 µM. For the same molecule, the TGI [10] was 29.9 µM.

CCOC(=O)C(CS)NC(=O)CCCCCCCC(=O)NC(CS)C(=O)OCC (stereo not given) gave a TGI [1] of over 100 µM, a TGI [2] of over 100 µM and a TGI [3] of over 100 µM. The TGI [4] was over 100 µM, the TGI [5] was over 100 µM and the TGI [6] was over 100 µM. For the same molecule, the TGI [7] was over 100 µM, the TGI [8] was over 100 µM and the TGI [9] was over 100 µM. It also gave a TGI [10] of over 100 µM.
